Measurements from patent US10717716B2, “1,3,4-oxadiazole derivative compounds as histone deacetylase 6 inhibitor, and the pharmaceutical composition comprising the same” (Chong Kun Dang Pharmaceutical Corp., priority 2015, dated 2020).

Target: T1, human recombinant HDAC6 (Homo sapiens, UniProt Q9UBN7)
T1 construct: purchased Calbiochem 382180
T1 sequence (Q9UBN7 1-1215): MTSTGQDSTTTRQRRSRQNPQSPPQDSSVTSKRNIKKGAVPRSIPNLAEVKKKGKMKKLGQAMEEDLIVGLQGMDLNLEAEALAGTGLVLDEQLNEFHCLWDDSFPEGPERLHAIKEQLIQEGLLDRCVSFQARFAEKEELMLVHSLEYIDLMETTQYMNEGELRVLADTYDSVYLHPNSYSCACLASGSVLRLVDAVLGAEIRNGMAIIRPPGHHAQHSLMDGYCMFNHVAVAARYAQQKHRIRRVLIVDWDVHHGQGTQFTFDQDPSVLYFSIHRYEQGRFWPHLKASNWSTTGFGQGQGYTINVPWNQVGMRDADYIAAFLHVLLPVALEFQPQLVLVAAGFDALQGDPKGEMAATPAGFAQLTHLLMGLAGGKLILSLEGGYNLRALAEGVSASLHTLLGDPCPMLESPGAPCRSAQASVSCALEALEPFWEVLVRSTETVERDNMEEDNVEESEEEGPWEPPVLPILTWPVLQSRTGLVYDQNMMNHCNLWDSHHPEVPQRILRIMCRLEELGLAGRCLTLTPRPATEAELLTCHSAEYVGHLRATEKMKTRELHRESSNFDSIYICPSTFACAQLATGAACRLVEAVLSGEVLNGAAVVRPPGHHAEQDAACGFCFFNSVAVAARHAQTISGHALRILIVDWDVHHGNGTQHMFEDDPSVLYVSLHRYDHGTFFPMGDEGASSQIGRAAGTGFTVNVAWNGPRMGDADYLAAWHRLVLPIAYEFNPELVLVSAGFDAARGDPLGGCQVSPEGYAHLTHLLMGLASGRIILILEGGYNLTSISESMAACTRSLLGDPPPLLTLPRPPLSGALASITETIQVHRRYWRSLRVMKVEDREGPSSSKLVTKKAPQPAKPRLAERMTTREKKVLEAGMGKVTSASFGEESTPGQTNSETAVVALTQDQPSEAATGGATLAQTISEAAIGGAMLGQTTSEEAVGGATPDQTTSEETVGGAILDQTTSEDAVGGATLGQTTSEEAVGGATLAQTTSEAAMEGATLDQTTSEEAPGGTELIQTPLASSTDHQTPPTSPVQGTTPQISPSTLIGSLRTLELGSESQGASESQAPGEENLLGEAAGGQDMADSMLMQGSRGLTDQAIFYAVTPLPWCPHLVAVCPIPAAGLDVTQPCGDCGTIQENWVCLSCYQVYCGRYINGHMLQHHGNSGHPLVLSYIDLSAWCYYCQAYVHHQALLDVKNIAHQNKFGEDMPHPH
Experiment: HDAC6 enzyme activity inhibition assay (HDAC Fluorimetric Drug Discovery Kit)
Format: biochemical
Details: for HDAC6 selectivity (fold): HDAC6 over HDAC1; for IC50: human recombinant HDAC6, same protocol as HDAC1, read-out: HDAC6
Experimental: In order to examine the HDAC6 selectivity of the compounds of formula I of the present invention by HDAC1 and HDAC6 enzymatic activity inhibition assays, an experiment was performed using a conventional substance as a control.
HDAC enzyme activity was measured using a HDAC Fluorimetric Drug Discovery Kit (BML-AK511, 516, Enzo Life Science). For the HDAC1 enzyme activity test, human recombinant HDAC1 (BML-SE456) was used as an enzyme source, and Fluor de Lys®-“SIRT1 (BNL-KI177) was used as a substrate. A 5-fold dilution of the compound was seeded into a 96-well plate, and then 0.3 μg of the enzyme and 10 μM of the substrate were added to each well of the plate and allowed to react at 30° C. for 60 minutes. Then, Fluor de Lys®-Developer II (BML-KI176) was added thereto and allowed to react for 30 minutes, after which the fluorescence value (Ex 360, Em 460) was measured using a multi-plate reader (Flexstation 3, Molecular Device). The HDAC6 enzyme was tested using human recombinant HDAC6 (382180) (Calbiochem) according to the same protocol as the HDAC1 enzyme activity test method. Based on the resulting values, each IC5, value was calculated using GraphPad Prism4.0 program.

Compound	HDAC6 selectivity (fold)	IC50 [nM]
O=C(N1CCOCC1)N(Cc1ccc(Cc2nnc(C(F)(F)F)o2)cc1)c1ccccc1 [Compound 21355, N-phenyl-N-(4-((5-(trifluoromethyl)-1,3,4-oxadiazol-2-yl)methyl)benzyl)morpholine-4-carboxamide]	1	6910
O=C(NCC1CCOCC1)N(Cc1ccc(-c2nnc(C(F)(F)F)o2)cc1)c1ccccc1 [Compound 21357, 1-Phenyl-3-((tetrahydro-2H-pyran-4-yl)methyl)-1-(4-(5-(trifluoromethyl)-1,3,4-oxadiazol-2-yl)benzyl)urea]	21	472
O=C(N1CCN(c2ccccc2)CC1)N(Cc1ccc(-c2nnc(C(F)(F)F)o2)cc1)c1ccccc1 [Compound 21358, N,4-diphenyl-N-(4-(5-(trifluoromethyl)-1,3,4-oxadiazol-2-yl)benzyl)piperazine-1-carboxamide]	10	1050
O=C(N1CC=C(c2ccccc2)CC1)N(Cc1ccc(-c2nnc(C(F)(F)F)o2)cc1)c1ccccc1 [Compound 21359, N,4-diphenyl-N-(4-(5-(trifluoromethyl)-1,3,4-oxadiazol-2-yl)benzyl)-3,6-dihydropyridine-1(2H)-carboxamide]	4	2280
CS(=O)(=O)N1CCN(C(=O)N(Cc2ccc(-c3nnc(C(F)(F)F)o3)cc2)c2ccccc2)CC1 [Compound 21363, 4-(Methylsulfonyl)-N-phenyl-N-(4-(5-(trifluoromethyl)-1,3,4-oxadiazol-2-yl)benzyl)piperazine-1-carboxamide]	118	84.8
CC(=O)N1CCN(C(=O)N(Cc2ccc(-c3nnc(C(F)(F)F)o3)cc2)c2ccccc2)CC1 [Compound 21364, 4-Acetyl-N-phenyl-N-(4-(5-(trifluoromethyl)-1,3,4-oxadiazol-2-yl)benzyl)piperazine-1-carboxamide]	108	92.4
CC(C)C(=O)N1CCN(C(=O)N(Cc2ccc(-c3nnc(C(F)(F)F)o3)cc2)c2ccccc2)CC1 [Compound 21365, 4-Isobutyryl-N-phenyl-N-(4-(5-(trifluoromethyl)-1,3,4-oxadiazol-2-yl)benzyl)piperazine-1-carboxamide]	69	145
CCC(=O)N1CCN(C(=O)N(Cc2ccc(-c3nnc(C(F)(F)F)o3)cc2)c2ccccc2)CC1 [Compound 21366, N-phenyl-4-propionyl-N-(4-(5-(trifluoromethyl)-1,3,4-oxadiazol-2-yl)benzyl)piperazine-1-carboxamide]	79	126
O=C(N1CCN(C(=O)C(F)(F)F)CC1)N(Cc1ccc(-c2nnc(C(F)(F)F)o2)cc1)c1ccccc1 [Compound 21367, N-phenyl-4-(2,2,2-trifluoroacetyl)-N-(4-(5-(trifluoromethyl)-1,3,4-oxadiazol-2-yl)benzyl)piperazine-1-carboxamide]	43	234
O=C(NCc1ccccc1)N(Cc1ccc(-c2nnc(C(F)(F)F)o2)cc1)c1ccccc1 [Compound 21368, 3-Benzyl-1-phenyl-1-(4-(5-(trifluoromethyl)-1,3,4-oxadiazol-2-yl)benzyl)urea]	24	420
O=C(N1CCS(=O)(=O)CC1)N(Cc1ccc(-c2nnc(C(F)(F)F)o2)cc1)C1CCCC1 [Compound 21371, N-cyclopentyl-N-(4-(5-(trifluoromethyl)-1,3,4-oxadiazol-2-yl)benzyl)thiomorpholine-4-carboxamide 1,1-dioxide]	9	1090
O=C(N1CCS(=O)(=O)CC1)N(Cc1ccccc1)Cc1ccc(-c2nnc(C(F)(F)F)o2)cc1 [Compound 21374, N-benzyl-N-(4-(5-(trifluoromethyl)-1,3,4-oxadiazol-2-yl)benzyl)thiomorpholine-4-carboxamide 1,1-dioxide]	10	1010
CCN(Cc1ccc(-c2nnc(C(F)(F)F)o2)cc1)C(=O)N1CCS(=O)(=O)CC1 [Compound 21375, N-ethyl-N-(4-(5-(trifluoromethyl)-1,3,4-oxadiazol-2-yl)benzyl)thiomorpholine-4-carboxamide 1,1-dioxide]	6	1750
C[C@@H]1CN(C(=O)N(Cc2ccc(-c3nnc(C(F)(F)F)o3)cc2)c2ccccc2)C[C@H](C)N1Cc1ccccc1 [Compound 21376, (3S,5R)-4-Benzyl-3,5-dimethyl-N-phenyl-N-(4-(5-(trifluoromethyl)-1,3,4-oxadiazol-2-yl)benzyl)piperazine-1-carboxamide]	22	448
O=C(N1CCC(F)(F)CC1)N(Cc1ccc(-c2nnc(C(F)(F)F)o2)cc1)c1ccccc1 [Compound 21377, 4,4-Difluoro-N-phenyl-N-(4-(5-(trifluoromethyl)-1,3,4-oxadiazol-2-yl)benzyl)piperidine-1-carboxamide]	30	334

Stronger by IC50, values ahead:

HDAC6 selectivity (fold)	IC50 [nM]	Compound
132	76	O=C(N1CCS(=O)(=O)CC1)N(Cc1ccc(-c2nnc(C(F)(F)F)o2)cn1)c1ccccc1 [Compound 21372, N-phenyl-N-((5-(5-(trifluoromethyl)-1,3,4-oxadiazol-2-yl)pyridin-2-yl)methyl)thiomorpholine-4-carboxamide 1,1-dioxide]
147	67.8	O=C(N1CCS(=O)(=O)CC1)N(Cc1ccc(-c2nnc(C(F)(F)F)o2)cc1)c1ccccc1 [Compound 21361, N-phenyl-N-(4-(5-(trifluoromethyl)-1,3,4-oxadiazol-2-yl)benzyl)thiomorpholine-4-carboxamide 1,1-dioxide]
179	56	O=C(N1CCS(=O)(=O)CC1)N(Cc1ccc(-c2nnc(C(F)(F)F)o2)cc1F)c1ccccc1 [Compound 21369, N-(2-fluoro-4-(5-(trifluoromethyl)-1,3,4-oxadiazol-2-yl)benzyl)-N-phenylthiomorpholine-4-carboxamide 1,1-dioxide]
180	55.7	O=C(N1CCNCC1)N(Cc1ccc(-c2nnc(C(F)(F)F)o2)cc1)c1ccccc1 [Compound 21362, N-phenyl-N-(4-(5-(trifluoromethyl)-1,3,4-oxadiazol-2-yl)benzyl)piperazine-1-carboxamide]
282	35.4	O=C(N1CCS(=O)(=O)CC1)N(Cc1ccc(-c2nnc(C(F)F)o2)cc1)c1ccccc1 [Compound 21360, N-(4-(5-(difluoromethyl)-1,3,4-oxadiazol-2-yl)benzyl)-N-phenylthiomorpholine-4-carboxamide 1,1-dioxide]
400	25	O=C(N1CCS(=O)(=O)CC1)N(Cc1ccc(-c2nnc(C(F)F)o2)cc1F)c1ccccc1 [Compound 21370, N-(4-(5-(difluoromethyl)-1,3,4-oxadiazol-2-yl)-2-fluorobenzyl)-N-phenylthiomorpholine-4-carboxamide 1,1-dioxide]
500	20	O=C(N1CCS(=O)(=O)CC1)N(Cc1ccc(-c2nnc(C(F)F)o2)cn1)c1ccccc1 [Compound 21373, N-((5-(5-(difluoromethyl)-1,3,4-oxadiazol-2-yl)pyridin-2-yl)methyl)-N-phenylthiomorpholine-4-carboxamide 1,1-dioxide]
